The record followed here is the METLIN SMRT retention time set (Domingo-Almenara et al. 2019).

The nature of the series: gradient 5% acetonitrile 3 min, to 50% in 2 min, to 85% in 15 min, held 3 min, 100 µL/min. As to conditions: column: Zorbax Extend-C18 2.1 x 50 mm; eluents: water / acetonitrile, 0.1% formic acid. The method in brief: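 Mixtures of ~100 pure standards were chromatographed on a Zorbax Extend-C18 column (2.1 × 50 mm, 1.8 μm) at 100 μL/min using water and acetonitrile, each with 0.1% formic acid. Detection used a quadrupole time-of-flight mass spectrometer in positive and negative ionization mode, and data collection spanned 3 months. Retention time was obtained from adduct peaks picked computationally and each checked manually.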
`O=C(CCCn1c(=O)c2cccn2c2ccc(F)cc21)NCCCN1CCCCCC1` had an RP-LC retention time of 645 s.

Consider `Cc1nc(C)c(CCNS(=O)(=O)c2cc(Cl)ccc2Cl)s1`, for which the RP-LC retention time worked out at 683 s.

`CCOC(=O)c1ccc(NC(=O)N(C)Cc2nc3cc(C(=O)N(C)C)ccc3n2C)cc1` yielded an RP-LC retention time of 634 s.

On to `CC(C)Cc1cc(-c2nnc3sc(-c4ccccc4F)nn23)n[nH]1`, for which the RP-LC retention time came to 889 s.

The molecule `COc1ccc(-c2ccc3c(N4CCOCC4)nc(N4C[C@@H](C)O[C@@H](C)C4)nc3n2)cc1CO` showed an RP-LC retention time of 698 s.

`CCOC(=O)c1[nH]c(C)c(C(=O)N2CCC(CC(=O)N3CCCCCC3)CC2)c1C`: the RP-LC retention time is 739 s.

Regarding `CC(=O)N(C)Cc1nc2ccccc2n1CCOc1ccccc1Cl`, the RP-LC retention time came to 599 s.

Molecule `COc1ccc(-c2noc(C3CC(=O)N(c4ccccc4)C3)n2)c(OC)c1` (stereo not given) returned an RP-LC retention time of 803 s.

`CC1(C)CC(=O)C2=C(C1)N(CC1CCCO1)C(=O)C2(NC(=O)c1ccccc1)C(F)(F)F` (stereo not given) had an RP-LC retention time of 906 s.

Take `Cc1nn(-c2nc(-c3ccc(Cl)cc3)cs2)c(C)c1CC(=O)N1CCc2ccccc2C1`: the RP-LC retention time is 1330 s.

As to `CCc1nccn1Cc1noc(-c2ccc(OC)cc2)n1`, the RP-LC retention time amounted to 626 s.

`CC(C)n1cnc(S(=O)(=O)N2CCC(C(=O)N3CCN(c4ccccc4)CC3)CC2)c1` yielded an RP-LC retention time of 754 s.

Molecule `FC(F)(F)c1cnc(N2CCN(Cc3ccccc3)CC2)c(Cl)c1` registered an RP-LC retention time of 717 s.

On to `CC(C)c1nc2c(c(=O)n1CC(=O)NCc1cccs1)CN(Cc1ccccc1)CC2`, for which the RP-LC retention time stood at 650 s.

In turn, `CCc1ccc(NC(=O)Cn2c(N)nc(CC)c(C)c2=O)cc1` returned an RP-LC retention time of 639 s.

In turn, `Cc1ccc(NC(=O)CN2C(=O)NC3(CCCCC3)C2=O)c(C)c1` showed an RP-LC retention time of 774 s.

The molecule `COc1ccc2nc([S@](=O)Cc3ncc(C)c(OC)c3C)[nH]c2c1` showed an RP-LC retention time of 664 s.

As to `COc1cc(NC(=O)C2CCN(c3nccnc3Sc3ccccc3)CC2)cc(OC)c1`, the RP-LC retention time turned out to be 1040 s.

In turn, `Cc1cc(C)cc(NC(=O)Cn2nc3c4cc(F)ccc4ncn3c2=O)c1` gave an RP-LC retention time of 752 s.

As to `CCc1ccc(S(=O)(=O)NCCc2cn(C)c3ncccc23)cc1`, the RP-LC retention time is 786 s.

For `Cc1[nH]c(C(=O)N2CCCC(C(=O)N3CCN(c4ccccc4)CC3)C2)c(C)c1C` (stereo not given), the RP-LC retention time amounted to 853 s.

On to `Cc1ccc2c(c1)N(C(=O)c1ccc(C#N)cc1)CCO2`, for which the RP-LC retention time was determined as 925 s.

Take `CCN(CC)CCNc1ccc(CO)c2sc3ccccc3c(=O)c12`: the RP-LC retention time was determined as 646 s.

`CCOC(=O)CNC(=O)Nc1cc(F)c2nc(N3CCCCC3)ccc2c1` had an RP-LC retention time of 596 s.

Molecule `COc1ccccc1N1CCN(c2cc(SCC(=O)NC3CCCCC3)ncn2)CC1` registered an RP-LC retention time of 875 s.

With `COc1ccc(Cl)cc1NC(=O)c1cnc2sccn2c1=O`, the RP-LC retention time is 839 s.

On to `Cc1ccc2c(c1)OCC(=O)N2Cc1nc(-c2ccc(C)c(C)c2)no1`, for which the RP-LC retention time was 1160 s.

`COc1ccc2c(c1)C1(CCN(S(=O)(=O)c3ccc(C#N)cc3)C1)C(=O)N2` (stereo not given) registered an RP-LC retention time of 797 s.

With `O=C(NC1CCCC1)C1CCN(c2nc3ccc(-c4cncnc4)nc3s2)CC1`, the RP-LC retention time is 776 s.

Molecule `CCOC(=O)COc1cc(-c2ccc(F)cc2)nc2ccc(NC(=O)C3CCC3)cc12` yielded an RP-LC retention time of 810 s.

`CC1CCN(CCNC(=O)c2ccc3c(c2)nc2n3CCN(Cc3ccccc3)C2=O)CC1` came in with an RP-LC retention time of 621 s.

`O=C(Cn1c(=O)n(C2CCCCC2)c2ncccc21)NCCCN1CCOCC1` registered an RP-LC retention time of 612 s.

As to `CCCn1cnc2cc(CNC(=O)C3CCCC3)ccc21`, the RP-LC retention time stood at 590 s.

For `Cn1nc(C(=O)Nc2ccccc2)c2c1CCN(C(=O)CCC(=O)NC1CC1)C2`, the RP-LC retention time was 678 s.

With `COC1C(=O)N(CC2CC2)C12CCN(Cc1ccc(F)c(F)c1)CC2` (stereo not given), the RP-LC retention time came to 623 s.

`Cc1ccc(-c2noc(C3CCCN3C(=O)c3ccc(C(C)C)cc3)n2)cc1` (stereo not given) displayed an RP-LC retention time of 1210 s.

`O=C(Nc1ccc2c(c1)N(C(=O)c1cccs1)CC2)c1ccccn1` showed an RP-LC retention time of 824 s.

As to `O=C(Nc1ccc(C(=O)N2CCC(C(=O)NC3CCCCCC3)CC2)cc1)c1ccccc1Cl`, the RP-LC retention time came to 839 s.

Take `COc1ccc(-c2csc3ncnc(NCCN4CCOCC4)c23)cc1`: the RP-LC retention time was determined as 569 s.

For the molecule `CCn1c(C2CCN(S(=O)(=O)c3ccc(Cl)cc3)C2)nc2cccnc21` (stereo not given), the RP-LC retention time turned out to be 796 s.

In turn, `O=S(=O)(Nc1ccc(F)cc1)c1cccnc1Nc1ccc(Cl)cc1` came in with an RP-LC retention time of 1120 s.

As for `Cc1noc(C)c1C1CCCN1C(=O)c1cc(-c2ccccc2F)no1` (stereo not given), the RP-LC retention time was 859 s.

As for `COCc1c(C(=O)O)nnn1-c1ccc(F)c(C)c1`, the RP-LC retention time was 723 s.

In the case of `Fc1ccc(OCc2nn3c(-c4cccnc4)nnc3s2)cc1`, the RP-LC retention time came to 781 s.

The molecule `Cc1cccc(NC(=O)C(C)n2cnc3nc4c(cc3c2=O)CCCC4)c1C` (stereo not given) showed an RP-LC retention time of 765 s.

The molecule `O=C(CSc1ccc(N2CCCC(C(=O)NC3CC3)C2)nn1)NCc1ccccc1Cl` (stereo not given) yielded an RP-LC retention time of 635 s.

`CCOc1cc(=O)n2c(c1C(=O)NC1CCCC1)CCCCC2` registered an RP-LC retention time of 671 s.

In turn, `Cc1cc(C)cc(-c2nc(C3CC(=O)N(c4ccc(Cl)cc4)C3)no2)c1` (stereo not given) had an RP-LC retention time of 1200 s.

In the case of `CCCCCNC(=O)C1CCN(S(C)(=O)=O)c2cc(Cl)ccc2O1` (stereo not given), the RP-LC retention time is 920 s.

Molecule `COCc1cc(=O)n(CC(=O)NCc2ccc(F)cc2F)c(N)n1` yielded an RP-LC retention time of 603 s.

As for `Cc1ccccc1Cn1cc(C(=O)Nc2cccc(Br)c2)ccc1=O`, the RP-LC retention time is 877 s.

The molecule `O=C(Cn1c(=O)oc2ccccc21)N1CCN(c2ccccn2)CC1` came in with an RP-LC retention time of 598 s.

`CCOC(=O)c1c(C)[nH]c(C)c1S(=O)(=O)N1CCC(C(=O)Nc2cc(Cl)ccc2C)CC1` registered an RP-LC retention time of 890 s.

Molecule `COc1cc(OC)cc(-c2noc(-c3nn(-c4ccc(C)c(C)c4)ccc3=O)n2)c1` registered an RP-LC retention time of 979 s.

In turn, `CN(C)CC1CCC2=C(C1=O)C(c1ccc(Cl)c(Cl)c1)C1=C(CCC(CN(C)C)C1=O)O2` (stereo not given) gave an RP-LC retention time of 584 s.

`COc1cccc(-c2nc(-c3ccc(S(=O)(=O)N4CCCCC4)cc3)no2)c1` gave an RP-LC retention time of 1270 s.

For the molecule `COc1ccc(NC(=O)C2CCN(c3cncnc3N3CCCCC3)CC2)cc1`, the RP-LC retention time amounted to 670 s.

`NC(=O)CSc1nnc(-c2ccncc2)o1` displayed an RP-LC retention time of 486 s.

`COC(=O)c1sc2ccc(NC(=O)C3CCN(S(=O)(=O)c4cccs4)CC3)cc2c1OC` displayed an RP-LC retention time of 988 s.

In turn, `C#Cc1cccc(Nc2ncnc3cc(OC)c(OCCCCCCC(=O)NO)cc23)c1` gave an RP-LC retention time of 707 s.

In turn, `Cc1ccc(Oc2cccc(C(=O)Nc3ccc(-c4csc(C)n4)cc3)c2)nn1` displayed an RP-LC retention time of 751 s.

`CSc1ccc(NC(=O)Nc2cccc(-c3ccc(N4CCOCC4)nn3)c2)cc1` came in with an RP-LC retention time of 726 s.

Consider `CN(C)[C@@H]1CN(C(=O)c2ccc(F)cc2Cl)C[C@H]1CO`, for which the RP-LC retention time was determined as 553 s.

Molecule `CCN1CCN(C(=O)c2c(OCC3CC3)cc(=O)n3c2CCCCC3)CC1` had an RP-LC retention time of 569 s.

With `CCOC(=O)c1nc(Nc2cc(OC)ccc2OC)c2ccccc2n1`, the RP-LC retention time was determined as 911 s.

Turning to `CCN(c1ccc(OC)cc1)S(=O)(=O)c1ccc2c(c1)CCCC(=O)N2`, the RP-LC retention time was determined as 804 s.

With `Cc1nc(-c2cccc(-c3noc(CNS(=O)(=O)c4ccccc4)n3)c2)cs1`, the RP-LC retention time amounted to 977 s.

Consider `CC1=C(c2ccc(Cl)cc2)S(=O)(=O)N=C1N1CCCN(C(=O)c2ccccn2)CC1`, for which the RP-LC retention time was 765 s.

On to `CCc1nc2cc(-c3noc(COc4cccc(C)c4)n3)ccc2o1`, for which the RP-LC retention time came out at 1280 s.

With `COCCOc1nc(N)c2[nH]c(=O)n(Cc3ccccc3)c2n1`, the RP-LC retention time stood at 676 s.

For `Cc1oc(C2CCN(C(=O)C3CCN(S(=O)(=O)N4CCC(C)CC4)CC3)CC2)nc1C(=O)N1CCCC1`, the RP-LC retention time was determined as 861 s.

The molecule `O=C(NC1CCCCCCC1)C1CCCN(C(=O)c2cc(-c3ccncc3)n[nH]2)C1` (stereo not given) displayed an RP-LC retention time of 646 s.

`O=C(Nc1ccc(N2CCOCC2)nc1)NC1CCCC1` came in with an RP-LC retention time of 585 s.

As for `CCn1c(=O)c(N2CCN(C(=O)Nc3ccc4c(c3)OCO4)CC2)nc2ccccc21`, the RP-LC retention time was determined as 868 s.

In turn, `Cc1cc(C)c(-c2noc(C)n2)c(NC(=O)c2ccc(C)c(F)c2)n1` gave an RP-LC retention time of 781 s.

On to `O=C(CSc1nc2ncccc2[nH]1)N1CCN(c2ccc(F)cc2)CC1`, for which the RP-LC retention time worked out at 649 s.

The molecule `Cc1ccc(S(=O)(=O)N2CCCC(Cn3c(C4CC4)nc4cccnc43)C2)cc1F` (stereo not given) showed an RP-LC retention time of 819 s.

`Cc1ccc(CNC(=O)c2ccc3c(c2)ncn3CCN2CCCC2)cc1`: the RP-LC retention time turned out to be 585 s.

In turn, `O=C1COc2ccccc2N1Cc1nc(-c2ccccc2Cl)no1` returned an RP-LC retention time of 995 s.

`Cc1ccc(S(=O)(=O)Nc2cccc(-c3cn4ccccc4n3)c2)cc1C` had an RP-LC retention time of 648 s.
